The source made the active and inactive calls.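 How the source made its calls: active means compounds giving half or more protection of infected cells from virus-caused growth loss, again on retest; inactive means the rest.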
System: CEM cells HIV-1 protection, formazan growth assay
Assay: NCI AIDS Antiviral Assay
Conditions: for IC50: measured here: growth of uninfected CEM cells
Procedure, shortened: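 Steps: treat uninfected and HIV-1-infected human CEM cells at five drug levels; quantify growth by soluble formazan; retest any compound reaching 50% protection; classify actives from the retest.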

SMILES	EC50	IC50	outcome
C#CC(C)(C)Oc1ccc2c(=O)c(-c3ccc(OC)cc3)coc2c1	> 200 µM	20 µM	–
O=C1c2c(c3c4ccccc4n(CC4CO4)c3c3[nH]c4ccccc4c23)C(=O)N1Cc1ccccc1 (stereo not given)	–	–	inactive
COc1cc(C(c2c(O)c3ccccc3oc2=O)N2CCCC2)cc(OC)c1OC (stereo not given)	> 200 µM	107 µM	–
NS(=O)(=O)c1cc2c(cc1Cl)NCNS2(=O)=O	> 832 µM	437 µM	–
O=C1C(=Cc2cccc(F)c2)C(=O)c2ccccc21	> 20.9 µM	> 20.9 µM	–
COc1ccc2c(c1)OC[C@@H]1c3cc(O)c4c(OC)cccc4c3O[C@H]21	> 100 µM	44.7 µM	–
N#CC1=C(N)CCC(C#N)(c2ccccc2)C1 (stereo not given)	> 200 µM	> 200 µM	–
O=C1C(C(c2ccc([N+](=O)[O-])cc2)N2CCOCC2)=C(O)C(c2ccccc2)N1c1ccccc1 (stereo not given)	> 100 µM	24.5 µM	–
Cc1nc2nn[nH]n2c(=O)c1CCO	> 200 µM	> 200 µM	–
COC1CC(COCc2ccccc2)CC(OC)O1 (stereo not given)	> 200 µM	66.1 µM	–
C[N+](C)(C)C(CSSCC(C(=O)[O-])[N+](C)(C)C)C(=O)[O-] (stereo not given)	> 200 µM	> 200 µM	–
COc1ccccc1/C=C/c1ccc2ccccc2n1	> 200 µM	38 µM	–
CC(Oc1ccc2c(=O)cc(-c3ccccc3)oc2c1)C(=O)O (stereo not given)	–	–	inactive
Cc1ccnc(NC(=O)Nc2ccc(F)c([N+](=O)[O-])c2)c1	> 200 µM	> 200 µM	–
ONC1=Nc2ccccc2OCc2cc(Br)c(Br)cc2COc2ccccc2N=C1NO	> 200 µM	10 µM	–
O=C1OCC(O)C(C2OC(=O)c3cc(O)c(O)c(O)c3-c3c(O)c(O)c(O)c4c3C(=O)OC2C4c2c(O)cc(O)c3c2OC(c2ccc(O)c(O)c2)C(O)C3)OC(=O)c2cc(O)c(O)c(O)c2-c2c1cc(O)c(O)c2O (stereo not given)	> 22.4 µM	> 22.4 µM	–
C1CCN(c2nc(=[N+]3CCCCC3)ss2)CC1	–	–	inactive
CCOC(=O)/C(=N\OC)C(O)C(F)(F)F (stereo not given)	> 200 µM	> 200 µM	–
CC(=O)Nc1ccccc1	> 1860 µM	> 1860 µM	–
O=C1/C(=C\c2ccc([N+](=O)[O-])cc2)CS(=O)(=O)C/C1=C/c1ccc([N+](=O)[O-])cc1	> 0.2 µM	0.0309 µM	–
N#C/C=C/c1cccc(C#N)c1	> 46.8 µM	> 46.8 µM	–

SMILES	EC50	IC50	outcome
CC(=O)Nc1nc(Cl)c2ncn(C3CCCO3)c2n1 (stereo not given)	> 200 µM	22.4 µM	–
O=C(O)/C(=C\c1cc2c(cc1[N+](=O)[O-])OCO2)c1cc2c(cc1Br)OCO2	> 200 µM	110 µM	–
CC(NC1=NCCO1)c1cccc([N+](=O)[O-])c1 (stereo not given)	> 200 µM	> 200 µM	–
CCOC(=O)Cn1c(=O)c(-c2ccccc2NC(C)=O)nc2ccccc21	> 200 µM	> 200 µM	–
C=C(CCCC(C)OC(C)OCC)[Si](C)(C)C (stereo not given)	> 38.9 µM	> 38.9 µM	–
CCN(CC)CC(C)Nc1cc(C)nc2c1ccc1c2ccc2c(NC(C)CN(CC)CC)cc(C)nc21 (stereo not given)	> 380 µM	234 µM	–
Cc1c2n(c(=O)[nH]c1=O)C1OC(CO)C(O2)C1N=[N+]=[N-] (stereo not given)	135 µM	> 200 µM	–
Clc1ccccc1CSc1cnnc2ccccc12	> 93.3 µM	67.6 µM	–
OC1COCC2N3C(=NN12)Sc1ccccc13 (stereo not given)	–	–	inactive
CN(C)c1nc(=NCc2cccs2)ss1	> 200 µM	17.4 µM	–
N=C(N)Oc1ccc(Cl)cc1	> 200 µM	26.9 µM	–
c1ccc(-c2cn3nc(N4CCOCC4)sc3n2)cc1	> 200 µM	> 200 µM	–
COc1cc(C)c(Br)c2ccc(Br)c(O)c12	> 200 µM	> 200 µM	–
COc1cc(C)cc2c(-c3c(OC(C)=O)cc(OC(C)=O)c4c3C[C@H](C)N(C(C)=O)[C@H]4C)cc(-c3cc(-c4c(OC(C)=O)cc(OC(C)=O)c5c4C[C@H](C)N(C(C)=O)[C@H]5C)c4cc(C)cc(OC)c4c3O)c(O)c12	> 200 µM	40.7 µM	–
CCOC(=O)CC[P+](c1ccccc1)(c1ccccc1)c1ccccc1	> 200 µM	21.4 µM	–
CC(=O)Oc1ccc(-c2cc3ccccc3oc2=O)cc1OC(C)=O	> 200 µM	8.32 µM	–
CN(C)c1ccc(C(=CC=C2C(=O)NC(=O)NC2=O)c2ccc(N(C)C)cc2)cc1	> 4.9 µM	> 4.9 µM	–
O=C(N/N=C1\CCc2ccccc21)N/N=C1\CCc2ccccc21	> 200 µM	> 200 µM	–
O=S(=O)(c1ccc(O)cc1)c1ccc(I)cc1	> 200 µM	64.6 µM	–
COc1ccc([C@H]2CC3C(=O)N(c4ccc(OC)cc4)C(=O)C3c3[nH]c4ccccc4c32)cc1 (stereo not given in full)	> 1.66 µM	> 1.66 µM	–
O=C(c1ccccc1)N1CCN2CCN=C(c3ccccc3)C21c1ccccc1 (stereo not given)	> 132 µM	> 132 µM	–

Source: PubChem BioAssay AID179 (DTP/NCI, 2004)
